{
  "source": "patent US20170121683A1",
  "about": "“ARYL HYDROCARBON RECEPTOR DISRUPTION AND ENHANCEMENT” (priority 2015, published 2017)",
  "system": "H9 hESCs",
  "experiment": "Hemato-endothelial differentiation of H9 hESCs as spin-EBs, flow cytometry (Example 1)",
  "assay_type": "cell-based, human",
  "method": "H9 human embryonic stem cells (H9 hESCs; University of Wisconsin, Madison, Wis.) were adapted to passage as single cells using TrypLE (Invitrogen, Carlsbad, Calif.) as previously described (Ng et al. Nat. Protoc. 3, 768-76 (2008)). H9 hESCs were maintained on irradiated mouse embryonic fibroblasts in ES cell growth medium including Dulbecco's modified Eagle's medium (DMEM)/Ham's F-12 medium (F12) (Invitrogen) supplemented with 15% Knockout Serum Replacer (Invitrogen), 1 mM L-glutamine (Invitrogen), 0.1 mM β-mercaptoethanol (Sigma Aldrich, St. Louis, Mo.), 1% minimum essential medium nonessential amino acids (Invitrogen), 4 ng/mL basic fibroblast growth factor (R&D Systems Inc., Minneapolis, Minn.), and 1% penicillin-streptomycin (Invitrogen) incubated at 37° C. in a humidified atmosphere containing 5% CO2. Single-cell adapted hESCs were subjected to hemato-endothelial differentiation as spin embryoid bodies (“spin-EBs”), also previously described (Ng et al. Nat. Protoc. 3, 768-76 (2008); Knorr et al. Stem Cells Dev. 22, 1861-9 (2013); Ferrell et al., Stem Cells 33(4), 1130-41 (2015)). In brief, TrypLE-adapted hESCs were harvested are resuspended in bovine serum albumin polyvinyl alcohol essential lipids (BPEL) media (Ferrell et al. Stem Cells 33(4):1130-41 (2015)) supplemented with 20 ng/mL bone morphogenic protein-4 (R&D Systems), 20 ng/mL vascular endothelial growth factor (R&D Systems), and 40 ng/mL stem cell factor (R&D Systems) (hemato-endothelial induction media or Stage I mesodermal induction media). Cells were plated in a low-attachment 96-well plate (Thermo Scientific, Waltham, Mass.) at 3,000 cells per well and centrifuged at 1500 rpm for 5 minutes to create three-dimensionalized embryoid body aggregates. Following 6 days of incubation, EBs were transferred with a multichannel micropipette to 0.1% gelatinized 24-well plates (8 EBs/well) with BEL media (BPEL media minus polyvinyl alcohol) supplemented with 40 ng/mL vascular endothelial growth factor, 40 ng/mL stem cell factor, 30 ng/mL Interleukin-3 (Peprotech, Rocky Hill, N.J.), 30 ng/mL Interleukin-6 (Peprotech), and 30 ng/mL thrombopoietin (Peprotech) ([…] or Stage II media) to induce hemato-endothelial-specific differentiation. Depending on the treatment group, Stage II media was also supplemented with DMSO, 1 μM StemReginin-1 (SR-1) (Cellagen Technology, San Diego, Calif.) in DMSO or 10 nM 2,3,7,8-tetrachlorodibenzo-p-dioxin (TCDD) (Sigma Aldrich) in DMSO. EBs were cultured until the indicated time points and one-half media changes with fresh Stage II media and drugs were performed every three days. For EB harvesting, the media containing the non-adherent differentiated hematopoietic cells was set aside while the adherent cells were treated with 0.05% trypsin (Invitrogen) containing 2% chicken serum (Sigma Aldrich) for 8-10 minutes in a 37° C. water bath. Both non-adherent and adherent fractions were combined for subsequent analyses.\nHarvested cells were incubated with PE-Cy7 CD34 (BD Biosciences, San Jose, Calif.) in conjunction with APC CD31, APC CD41a, APC CD43, or APC CD45 for 30 minutes at 4° C. in FACS buffer (DPBS containing 2% fetal bovine serum and 0.1% sodium azide). Dead cells were excluded using Sytox Blue dye (Invitrogen) prior to analysis. Cells were analyzed using an LSRII flow cytometer (BD Biosciences) and data were analyzed using FlowJo software (TreeStart, Ashland, Oreg.).",
  "data": [
    {"smiles": "CC(C)n1cnc2c(NCCc3ccc(O)cc3)nc(-c3csc4ccccc34)nc21", "note": "[SR-1, StemReginin-1]", "values": [
      {"measurement": "CD34+CD31+ hemato-endothelial cells", "setting": "Day 9, 1 μM SR-1, n=3", "value": "17.63%±1.25"},
      {"measurement": "expansion of CD34+CD45+ hematopoietic progenitor cells relative to DMSO-treated controls", "setting": "Day 12, 1 μM SR-1", "value": "approximately two-fold expansion"},
      {"measurement": "CD34+CD45+ hematopoietic progenitor cells", "setting": "Day 12, 1 μM SR-1, n=3", "value": "16.35%±4.05"}
    ]},
    {"smiles": "Clc1cc2c(cc1Cl)Oc1cc(Cl)c(Cl)cc1O2", "note": "[TCDD, 2,3,7,8-tetrachlorodibenzo-p-dioxin]", "values": [
      {"measurement": "CD34+CD45+ progenitor cells", "setting": "Day 15, 10 nM TCDD, n=3", "value": "3.99%±0.80"},
      {"measurement": "CD34−CD43+ differentiated hematopoietic cells", "setting": "Day 15, 10 nM TCDD, n=3", "value": "84.5%±2.78"},
      {"measurement": "CD34−CD45+ differentiated hematopoietic cells", "setting": "Day 15, 10 nM TCDD, n=3", "value": "81.75%±1.75"}
    ]}
  ]
}
